The results in this text go back to patent publication US12643881B2, “Bicyclic amine CDK12 inhibitors” (Incyte Corporation, priority 2021, dated 2026).

The target in the assay is T1, CDK12 complexed with Cyclin K (Homo sapiens, UniProt Q9NYV4).
T1 construct: GST (N)
T1 sequence (Q9NYV4 whole entry): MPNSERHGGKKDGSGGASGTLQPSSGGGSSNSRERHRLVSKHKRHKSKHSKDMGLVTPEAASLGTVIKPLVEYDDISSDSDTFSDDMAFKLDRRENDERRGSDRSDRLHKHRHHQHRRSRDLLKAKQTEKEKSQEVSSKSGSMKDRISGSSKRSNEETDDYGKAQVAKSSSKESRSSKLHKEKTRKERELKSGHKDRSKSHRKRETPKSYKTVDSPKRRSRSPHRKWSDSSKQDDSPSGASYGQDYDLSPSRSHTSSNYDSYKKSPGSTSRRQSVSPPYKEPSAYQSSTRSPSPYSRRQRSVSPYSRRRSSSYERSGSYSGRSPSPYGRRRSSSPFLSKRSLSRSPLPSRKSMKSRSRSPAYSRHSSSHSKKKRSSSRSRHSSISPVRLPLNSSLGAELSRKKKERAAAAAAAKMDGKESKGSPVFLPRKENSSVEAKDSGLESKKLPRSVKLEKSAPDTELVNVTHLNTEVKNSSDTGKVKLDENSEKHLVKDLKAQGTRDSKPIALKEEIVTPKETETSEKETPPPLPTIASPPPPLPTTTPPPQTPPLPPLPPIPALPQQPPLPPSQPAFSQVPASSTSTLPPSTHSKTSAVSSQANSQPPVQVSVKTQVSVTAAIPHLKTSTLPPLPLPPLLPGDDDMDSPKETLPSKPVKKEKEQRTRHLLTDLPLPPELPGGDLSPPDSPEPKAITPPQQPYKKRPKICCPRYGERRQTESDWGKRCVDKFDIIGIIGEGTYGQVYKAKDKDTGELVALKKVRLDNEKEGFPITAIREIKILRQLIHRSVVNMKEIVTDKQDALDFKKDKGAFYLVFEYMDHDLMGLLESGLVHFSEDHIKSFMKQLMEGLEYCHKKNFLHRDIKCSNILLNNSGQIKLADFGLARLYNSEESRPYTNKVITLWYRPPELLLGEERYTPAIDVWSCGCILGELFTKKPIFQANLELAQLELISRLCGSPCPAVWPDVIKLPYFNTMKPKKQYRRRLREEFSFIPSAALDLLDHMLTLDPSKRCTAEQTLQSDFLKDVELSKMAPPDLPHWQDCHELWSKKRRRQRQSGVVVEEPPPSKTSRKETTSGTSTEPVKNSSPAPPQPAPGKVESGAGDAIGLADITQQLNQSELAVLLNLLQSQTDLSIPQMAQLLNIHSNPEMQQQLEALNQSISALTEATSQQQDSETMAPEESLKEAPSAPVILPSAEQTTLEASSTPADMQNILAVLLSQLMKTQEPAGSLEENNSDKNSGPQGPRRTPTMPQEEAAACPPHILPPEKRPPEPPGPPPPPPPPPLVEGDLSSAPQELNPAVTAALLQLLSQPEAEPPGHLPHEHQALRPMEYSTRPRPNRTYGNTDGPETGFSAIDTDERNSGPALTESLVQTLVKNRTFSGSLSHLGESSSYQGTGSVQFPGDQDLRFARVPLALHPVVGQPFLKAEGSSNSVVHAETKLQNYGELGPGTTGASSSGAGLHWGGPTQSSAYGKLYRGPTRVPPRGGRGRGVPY
T1 sequence (O75909 whole entry partner): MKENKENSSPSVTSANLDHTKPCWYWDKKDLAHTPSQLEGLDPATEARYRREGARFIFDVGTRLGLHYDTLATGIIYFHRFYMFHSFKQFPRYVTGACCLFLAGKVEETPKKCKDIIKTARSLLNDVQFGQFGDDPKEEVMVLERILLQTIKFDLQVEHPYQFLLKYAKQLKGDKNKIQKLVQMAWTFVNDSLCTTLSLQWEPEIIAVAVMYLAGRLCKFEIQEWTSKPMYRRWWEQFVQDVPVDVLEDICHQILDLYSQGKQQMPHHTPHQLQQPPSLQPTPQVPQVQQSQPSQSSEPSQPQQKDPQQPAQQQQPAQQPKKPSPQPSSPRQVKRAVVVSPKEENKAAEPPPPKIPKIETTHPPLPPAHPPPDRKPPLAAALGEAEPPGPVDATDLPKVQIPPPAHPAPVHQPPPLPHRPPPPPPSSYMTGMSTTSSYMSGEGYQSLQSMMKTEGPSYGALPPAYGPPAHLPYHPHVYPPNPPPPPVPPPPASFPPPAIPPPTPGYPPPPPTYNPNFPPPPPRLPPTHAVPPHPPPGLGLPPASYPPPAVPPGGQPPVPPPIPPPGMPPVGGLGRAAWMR
The assay is described as follows: CDK Enzymatic Assays (HTRF, LANCE Ultra kinase assay), Example A1. The settings on record: enzyme pre-incubated with compounds for 60 minutes prior to addition of ATP (1 mM final) and Ulight-peptide; reaction 60-90 minutes at room temperature. The class given is biochemical. The source says:
Example A1. CDK Enzymatic Assays
The following activity of the CDK enzymes in complex with their respective cyclins we assayed: CDK1 complexed with Cyclin B1; CDK2 complexed with Cyclin E1; CDK4 complexed with Cyclin D1; CDK6 complexed with Cyclin D1; CDK6 complexed with Cyclin D3; CDK9 complexed with Cyclin T1; CDK7 complexed with Cyclin H/MAT1; CDK2 complexed with Cyclin A2; CDK5 complexed with p35; CDK12 complexed with Cyclin K; CDK13 complexed with Cyclin K. These in vitro enzyme activity are assayed using homogeneous time-resolved energy transfer (HTRF), which measures phosphorylation of a peptide substrate. The LANCER Ultra kinase assay (PerkinElmer) uses a ULight™-labeled EIF4E-binding protein 1 (THR37/46) peptide (DYSTTPGGTLFSTTPGTRI (SEQ ID NO: 1)) substrate and a Europium-labeled anti-phospho-4E-BP1 antibody (CDK2, CDK1, CDK4, CDK6, CDK9, CDK12, CDK13) or ULight™-labeled Myelin Basic Protein peptide (VTPRTPPP (SEQ ID NO: 2)) substrate and a Europium-labeled anti-phospho-MBP antibody (CDK7). Each CDK enzyme activity assays utilized human CDK co-expressed as N-terminal GST-tagged protein with its full length cyclin partner using a baculovirus expression system.
Enzyme was pre-incubated with compounds for 30 minutes (CDK1,2,4,6,9) or 60 minutes (CDK7, CDK12, CDK13) prior to addition of ATP and Ulight-peptide (1 mM and 50 nM final, respectively), in assay buffer containing 50 mM HEPES pH 7.5, 1 mM EGTA, 10 mM MgCl2, 2 mM DTT, 0.05 mg/mL BSA, and 0.01% Tween 20. The reaction was then incubated for 60-90 minutes at room temperature. The reactions were stopped by the addition of EDTA and Europium labeled antibody, for a final concentration of 15 mM and 1.0-1.5 nM, respectively. HTRF signals were read after 15-120 minutes. A ratio of fluorescence transferred to the labeled substrate (665 nm) relative to fluorescence of the Europium donor (620 nm) represents the extent of phosphorylation. Ratios for treated wells were normalized to DMSO only (100% activity) and no enzyme (0% activity) controls. Normalized data was analyzed using a three or four parameter dose response curve to determine IC50 for each compound and are shown in Table A. Control reference inhibitors were included on each plate.
In general terms: TR-FRET usually uses a lanthanide donor and a delayed reading to cut background.
As usually defined, the IC50 is the concentration needed to halve the response being measured. As to `C=CC(=O)Nc1nn(C)c2cc(N3CCC[C@@H](Nc4ncc(C#N)c(OC)n4)C3)ncc12` [Example 1, (R)—N-(6-(3-((5-Cyano-4-methoxypyrimidin-2-yl)amino)piperidin-1-yl)-1-methyl-1H-pyrazolo[4,3-c]pyridin-3-yl)acrylamide], the IC50 was less than 50 nM.
For `C=CC(=O)Nc1nn(C)c2cc(N3CC[C@@H](Nc4ncc(C#N)c(OC)n4)C3)ncc12` [Example 2, (R)—N-(6-(3-((5-Cyano-4-methoxypyrimidin-2-yl)amino)pyrrolidin-1-yl)-1-methyl-1H-pyrazolo[4,3-c]pyridin-3-yl)acrylamide], the IC50 is less than 50 nM.
Turning to `C=CC(=O)Nc1nc2c(N3CC[C@@H](Nc4ncc(C#N)c(OC)n4)C3)nccn2n1` [Example 3, (R)—N-(8-(3-((5-Cyano-4-methoxypyrimidin-2-yl)amino)pyrrolidin-1-yl)-[1,2,4]triazolo[1,5-a]pyrazin-2-yl)acrylamide], the IC50 is less than 50 nM.
Then `C=CC(=O)Nc1ccc2c(c1)C(=O)N([C@H]1CCC[C@@H](Nc3ncc(-c4ccc(OC)cc4)cn3)C1)C2` [Example 4, N-(2-((1S,3R)-3-((5-(4-Methoxyphenyl)pyrimidin-2-yl)amino)cyclohexyl)-3-oxoisoindolin-5-yl)acrylamide], with more than 500 nM; and `C=CC(=O)Nc1ccc2c(c1)C(=O)N([C@H]1CCC[C@@H](Nc3ncc(C)c(C(F)(F)F)n3)C1)C2` [Example 5, N-(2-((1S,3R)-3-((5-Methyl-4-(trifluoromethyl)pyrimidin-2-yl)amino)cyclohexyl)-3-oxoisoindolin-5-yl)acrylamide], with less than 50 nM.
In the case of `C=CC(=O)Nc1ccc2c(c1)C(=O)N([C@H]1CCC[C@@H](Nc3ncc(OC(F)F)cn3)C1)C2` [Example 6, N-(2-((1S,3R)-3-((5-(Difluoromethoxy)pyrimidin-2-yl)amino)cyclohexyl)-3-oxoisoindolin-5-yl)acrylamide] it was less than 50 nM; in that of `C=CC(=O)Nc1ccc2c(c1)C(=O)N([C@H]1CCC[C@@H](Nc3ncc(C=C)cn3)C1)C2` [Example 7, N-(3-Oxo-2-((1S,3R)-3-((5-vinylpyrimidin-2-yl)amino)cyclohexyl)isoindolin-5-yl)acrylamide], less than 50 nM.
In the case of `C=CC(=O)Nc1ccc2c(c1)C(=O)N([C@H]1CCC[C@@H](Nc3ncc(-c4cnn(C)c4)cn3)C1)C2` [Example 8, N-(2-((1S,3R)-3-((5-(1-Methyl-1H-pyrazol-4-yl)pyrimidin-2-yl)amino)cyclohexyl)-3-oxoisoindolin-5-yl)acrylamide] it was more than 500 nM.
As to `C=CC(=O)Nc1ccc2c(c1)C(=O)N([C@H]1CCC[C@@H](Nc3ncc(C#N)c(C)n3)C1)C2` [Example 9, N-(2-((1S,3R)-3-((5-Cyano-4-methylpyrimidin-2-yl)amino)cyclohexyl)-3-oxoisoindolin-5-yl)acrylamide], the IC50 is less than 50 nM.
As for `C=CC(=O)Nc1ccc2c(c1)C(=O)N([C@H]1CCC[C@@H](Nc3ncc(CC)cn3)C1)C2` [Example 10, N-(2-((1S,3R)-3-((5-Ethylpyrimidin-2-yl)amino)cyclohexyl)-3-oxoisoindolin-5-yl)acrylamide], the IC50 was less than 50 nM.
In the case of `C=CC(=O)Nc1ccc2c(c1)C(=O)N([C@H]1CCC[C@@H](Nc3ncc(C4CC4)cn3)C1)C2` [Example 11, N-(2-((1S,3R)-3-((5-Cyclopropylpyrimidin-2-yl)amino)cyclohexyl)-3-oxoisoindolin-5-yl)acrylamide] it was 50 to 500 nM.
Turning to `C=CC(=O)Nc1ccc2c(c1)C(=O)N([C@H]1CCC[C@@H](Nc3ncc(C(C)C)cn3)C1)C2` [Example 12, N-(2-((1S,3R)-3-((5-Isopropylpyrimidin-2-yl)amino)cyclohexyl)-3-oxoisoindolin-5-yl)acrylamide], the IC50 was less than 50 nM.
On to `C=CC(=O)Nc1ccc2c(c1)C(=O)N([C@H]1CCC[C@@H](Nc3ncc(C)c(OC)n3)C1)C2` [Example 13, N-(2-((1S,3R)-3-((4-Methoxy-5-methylpyrimidin-2-yl)amino)cyclohexyl)-3-oxoisoindolin-5-yl)acrylamide], for which the IC50 lay in the range of 50 to 500 nM.
On to `C=CC(=O)Nc1c(C)nc2c(N3CCC[C@@H](Nc4ncc(C#N)c(OC)n4)C3)nccn12` [Example 14, (R)—N-(8-(3-((5-Cyano-4-methoxypyrimidin-2-yl)amino)piperidin-1-yl)-2-methylimidazo[1,2-a]pyrazin-3-yl)acrylamide], for which the IC50 was less than 50 nM.
In the case of `C=CC(=O)Nc1ccc2c(c1)C(=O)N([C@H]1CCC[C@@H](Nc3ccc(C#N)c(C)n3)C1)C2` [Example 15, N-(2-((1S,3R)-3-((5-Cyano-6-methylpyridin-2-yl)amino)cyclohexyl)-3-oxoisoindolin-5-yl)acrylamide] it was more than 500 nM.
Then `C=CC(=O)Nc1ccc2c(c1)C(=O)N([C@H]1CCC[C@@H](Nc3cc(C)c(C#N)cn3)C1)C2` [Example 16, N-(2-((1S,3R)-3-((5-Cyano-4-methylpyridin-2-yl)amino)cyclohexyl)-3-oxoisoindolin-5-yl)acrylamide], with 50 to 500 nM; and `C#Cc1cnc(N[C@@H]2CCC[C@H](N3Cc4ccc(NC(=O)C=C)cc4C3=O)C2)nc1` [Example 17, N-(2-((1S,3R)-3-((5-Ethynylpyrimidin-2-yl)amino)cyclohexyl)-3-oxoisoindolin-5-yl)acrylamide], with less than 50 nM; and `C=CC(=O)Nc1ccc2c(c1)C(=O)N([C@H]1CCC[C@@H](Nc3cc(C(F)(F)F)c(C#N)cn3)C1)C2` [Example 18, N-(2-((1S,3R)-3-((5-Cyano-4-(trifluoromethyl)pyridin-2-yl)amino)cyclohexyl)-3-oxoisoindolin-5-yl)acrylamide], with less than 50 nM.
Then `C=CC(=O)Nc1ccc2c(c1)C(=O)N([C@H]1CCC[C@@H](Nc3cc(C#N)c(C(F)(F)F)cn3)C1)C2` [Example 19, N-(2-((1S,3R)-3-((4-Cyano-5-(trifluoromethyl)pyridin-2-yl)amino)cyclohexyl)-3-oxoisoindolin-5-yl)acrylamide], with less than 50 nM.
As to `C=CC(=O)Nc1nn(C)c2c(N3CC[C@@H](Nc4ncc(C#N)cn4)C3)cccc12` [Example 20, (R)—N-(7-(3-((5-Cyanopyrimidin-2-yl)amino)pyrrolidin-1-yl)-1-methyl-1H-indazol-3-yl)acrylamide], the IC50 lay within 50 to 500 nM.
Then `C=CC(=O)Nc1nn(C)c2cc(N3CC[C@@H](Nc4ncc(C#N)c(OC)n4)C3)ccc12` [Example 21, (R)—N-(6-(3-((5-Cyano-4-methoxypyrimidin-2-yl)amino)pyrrolidin-1-yl)-1-methyl-1H-indazol-3-yl)acrylamide], with 50 to 500 nM; and `C=CC(=O)Nc1nc2cccc(N3CCC[C@@H](Nc4ncc(C#N)c(OC)n4)C3)n2n1` [Example 22, (R)—N-(5-(3-((5-Cyano-4-methoxypyrimidin-2-yl)amino)piperidin-1-yl)-[1,2,4]triazolo[1,5-a]pyridin-2-yl)acrylamide], with less than 50 nM; and `C=CC(=O)Nc1nc2cccc(N3CC[C@@H](Nc4ncc(C#N)c(OC)n4)C3)n2n1` [Example 23, (R)—N-(5-(3-((5-Cyano-4-methoxypyrimidin-2-yl)amino)pyrrolidin-1-yl)-[1,2,4]triazolo[1,5-a]pyridin-2-yl)acrylamide], with less than 50 nM.
As for `C=CC(=O)Nc1cccc2c1cnn2[C@H]1CCC[C@@H](Nc2ncc(C#N)c(OC)n2)C1` [Example 24, N-(1-((1S,3R)-3-((5-Cyano-4-methoxypyrimidin-2-yl)amino)cyclohexyl)-1H-indazol-4-yl)acrylamide], the IC50 was less than 50 nM.
In the case of `C=CC(=O)Nc1ccc2c(cnn2[C@H]2CCC[C@@H](Nc3ncc(C#N)c(OC)n3)C2)c1` [Example 25, N-(1-((1S,3R)-3-((5-Cyano-4-methoxypyrimidin-2-yl)amino)cyclohexyl)-1H-indazol-5-yl)acrylamide] it was 50 to 500 nM.
Then `C=CC(=O)Nc1ccc2c(ccn2[C@H]2CCC[C@@H](Nc3ncc(C#N)c(OC)n3)C2)c1` [Example 26, N-(1-((1S,3R)-3-((5-Cyano-4-methoxypyrimidin-2-yl)amino)cyclohexyl)-1H-indol-5-yl)acrylamide], with more than 500 nM.
In the case of `C=CC(=O)Nc1cccc2c1ncn2[C@H]1CCC[C@@H](Nc2ncc(C#N)c(OC)n2)C1` [Example 27, N-(1-((1S,3R)-3-((5-Cyano-4-methoxypyrimidin-2-yl)amino)cyclohexyl)-1H-benzo[d]imidazol-4-yl)acrylamide] it was less than 50 nM.
